Laboratory results from patent publication US9556169B2, “Compounds and compositions for the treatment of parasitic diseases” (NOVARTIS AG, priority 2012, dated 2017).

Tests used:
[1] = system: P. falciparum (NF54 or 3D7 strain); experiment: P. falciparum proliferation assay in infected human blood cells (SYBR Green); format: cell-based; conditions: Plasmodium falciparum, Erythrocyte; infected human erythrocytes, 72 hours, SYBR Green fluorescence; read-out: EC50 (nM), inhibitory efficacy in delaying P. falciparum proliferation in infected human blood cells
Summary of the method: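 Asexual NF54 or 3D7 parasites in O+ human erythrocytes (final 2.5% hematocrit, 0.3% parasitemia) exposed to compound for 72 h at 37 °C under 93% N2/4% CO2/3% O2. Lysis with SYBR Green I overnight at rt; fluorescence (ex 425/em 530 nm) tracks parasite DNA, giving EC50.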

[2] = system: Plasmodium yoelii (17XNL) sporozoites; experiment: Liver stage P. yoelii sporozoite invasion assay in HepG2-A16-CD81EGFP cells; format: cell-based; conditions: values without * in Table 2, HepG2-A16-CD81EGFP liver cells, 48 hours, immunofluorescence, read-out: EC50 (nM), P. yoelii Sporozoite Invasion Assay
Text: Assay for Proliferation of Parasite in Infected Liver Cells
Compounds of the invention can be assayed to measure their capacity to inhibit proliferation of parasites in liver cells. The proliferation is quantified by determine the number of infected cells by immunofluorescence.
Due to the difficulty of successfully infecting immortalized human liver cell lines with the human malaria sporozoites (liver-stage parasite), rodent malaria sporozoites from Plasmodium yoelii (17XNL) and P. berghei (ANKA) are the preferred surrogate. Sporozoites are obtained from Anopheles stephensi mosquitoes supplied by the New York University Insectary, which ships the malaria-infected mosquitoes 10-13 days following the ingestion of an infective blood meal.
A transgenic HepG2 cell line expressing the tetraspanin CD81 receptor (HepG2-A16-CD81^EGFP) is used to increase the infectivity rate of rodent-malaria sporozoites into human cells. HepG2-A16-CD81^EGFP cells are stably transformed to express a GFP-CD81 fusion protein. A continuous in vitro culture of this line was maintained at 37° C. in 4% CO2 in complete media (CM) which contains: DMEM (Invitrogen, Carlsbad, USA) supplemented with 10% FCS, 0.29 mg/ml glutamine, 100 units penicillin and 100 μg/ml streptomycin (SigmaAldrich, USA).
Liver Stage P. yoelii Sporozoite Invasion Assay
Twenty to twenty-six hours prior to sporozoite infection, 7.5×10^3 HepG2-A16-CD81^EGFP cells are seeded into 384-well plates (Aurora 384 IQ-EB black plates with clear bottoms; 50 μl of 1.5×10^5 cells/ml in CM). These plates are incubated at 37° C. with 4% CO2 overnight. Two hours prior to infection, 50 nl of compound dissolved in DMSO (0.1% final DMSO concentration per well) were transferred with a PinTool (GNF Systems) into the assay plates (10 μM final concentration). A 1:3 serial dilution of atovaquone (10 μM at the highest final concentration) and wells treated only with DMSO were used as positive and negative controls, respectively.
Freshly dissected salivary glands from infected mosquitoes were homogenized in a glass tissue grinder, filtered twice through Nylon cell strainers (40 μm pore size, BD Falcon) and counted using a hemocytometer. The assay plate with HepG2-A16-CD81^EGFP cells and compound were then infected with 8×10^3 sporozoitesper well and the plates are subjected to a centrifugal force of 650×g to pellet the sporozoites onto the liver cell monolayer. The assay plate is incubated at 37° C. for 2 hours to permit sporozoite invasion, then the media is aspirated from the media plate, and replaced with 50 μl CM (containing a 5× concentration of penicillin/streptomycin; 500 units penicillin and 0.5 mg streptomycin per ml) per well. 50 nl of compound is re-introduced by PinTool and the assay plate incubated for 48 hours at 37° C. before quantification of infected cells by immunofluorescence.
Atovaquone and uninfected wells were used as controls on each plate. Two replicate plates are tested for each assay.
After fixing the cells by addition of 12.5 μl of 20% solution of paraformaldehyde (EMS, Hatfield, USA) to each assay well (4% final formaldehyde concentration), membranes were permeabilized with 0.5% Triton-X-100 (Thermo Fisher Scientific) and EEFs were stained using a mouse polyclonal serum raised against the Plasmodium yoelii heat shock protein 70 (PyHSP70), a DyLight 649 goat anti-mouse IgG, Fc(gamma) fragment specific secondary antibody (Jackson Immuno Research, Cat#115-495-071) and the Hoechst 33342 nucleic acid dye (Invitrogen, Carlsbad, USA). Stained EEFs were then quantified using the Opera Confocal High Content Screening System (Perkin Elmer, Waltham, USA). Images were collected using a 20× objective lens (20×/0.45 NA, LWD Plan Fluor, Olympus) at a binning of 2, using a 365 nm Xeon arc lamp illumination to detect the Hoechst-labeled nuclei and 635 nm laser line to excite DyLight649-labeled parasites. The image resolution yielded was approximately 0.66 μm/pixel (˜0.43 μm 2/pixel). […]

CNC(=O)c1ccc(-c2cnn3ccc(C(=O)N(c4ccc(Cl)cc4)C4CC4)cc23)cc1 [Example 116, N-(4-Chlorophenyl)-N-cyclopropyl-3-(4-(methylcarbamoyl)phenyl)pyrazolo[1,5-a]pyridine-5-carboxamide]
EC50 [1]: 1 nM
EC50 [2]: 3 nM

CNC(=O)c1ccc(-c2cnn3ccc(C(=O)N(CC4CC4)c4ccc(C#N)cn4)cc23)cc1 [Example 117, N-(5-Cyanopyridin-2-yl)-N-(cyclopropylmethyl)-3-(4-(methylcarbamoyl)phenyl)pyrazolo[1,5-a]pyridine-5-carboxamide]
EC50 [1]: 4 nM
EC50 [2]: 7 nM

CNC(=O)c1ccc(-c2cnn3ccc(C(=O)N(c4ccc(C#N)cc4)C4CC4)cc23)cc1 [Example 118, N-(4-Cyanophenyl)-N-cyclopropyl-3-(4-(methylcarbamoyl)phenyl)pyrazolo[1,5-a]pyridine-5-carboxamide]
EC50 [1]: 3 nM
EC50 [2]: 1 nM

CNC(=O)c1ccc(-c2cnn3ccc(C(=O)N(c4ccc(C#N)cn4)C(C)(C)C)cc23)cc1 [Example 119, N-(tert-Butyl)-N-(5-cyanopyridin-2-yl)-3-(4-(methylcarbamoyl)phenyl)pyrazolo[1,5-a]pyridine-5-carboxamide]
EC50 [1]: 95 nM
EC50 [2]: 56 nM

CCN(C(=O)c1ccn2ncc(-c3ccc(S(=O)(=O)NC)cc3)c2c1)c1ccc(C#N)cn1 [Example 140, N-(5-cyanopyridin-2-yl)-N-ethyl-3-(4-[N-methylsulfamoyl]phenyl)pyrazolo[1,5-a]pyridine-5-carboxamide]
EC50 [1]: 199 nM
EC50 [2]: 84 nM
